Laboratory results reported in PMC7681013, “Structure and kinetics of indole-3-glycerol phosphate synthase from Pseudomonas aeruginosa: Decarboxylation is not essential for indole formation” (The Journal of Biological Chemistry, 2020).

Target: T1, PaIGPS (Pseudomonas aeruginosa, UniProt P20577)
T1 construct: gene trpC
T1 sequence (P20577 1-278): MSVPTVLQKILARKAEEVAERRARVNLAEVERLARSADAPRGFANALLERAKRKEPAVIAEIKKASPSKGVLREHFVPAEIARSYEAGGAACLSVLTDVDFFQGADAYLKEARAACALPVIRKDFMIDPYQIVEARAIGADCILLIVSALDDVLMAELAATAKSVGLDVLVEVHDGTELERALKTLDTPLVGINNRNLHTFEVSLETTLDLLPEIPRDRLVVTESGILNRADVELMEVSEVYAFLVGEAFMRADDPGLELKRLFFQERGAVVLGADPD
Test: X-ray crystal structure, […] Å
Assay type: binding
Settings: active site, nonreactive substrate analog; seven of eight chains; pH 3.4 crystals

Structure (SMILES): O=C(O)c1ccccc1NC[C@@H](O)[C@H](O)[C@H](O)COP(=O)(O)O [rCdRP]
- X-ray crystal structure, 2.1 Å: The substrate analog, rCdRP, is bound in the active site of the seven more ordered chains.
